Measured values reported in US9034862B2, “Compositions and methods for the treatment of cancer” (priority 2011, dated 2015).
Where two headings read alike, the source gives them in different places.

Legend:
[1] = system: human breast carcinoma MCF7; test: MTT assay, MCF7; type: cell-based
Protocol: (§1) Human colon carcinoma HT29, human breast carcinoma MCF7, human bone sarcoma U2OS, human prostate carcinoma PC3, and human cervix carcinoma HeLa cells were obtained from the ATCC. A2780/CP70 cisplatin-resistant human ovarian cancer cells were kindly provided by Dr. Stephen B. Howell (Moores UCSD Cancer Center) and the human lung carcinoma cell lines A549 and normal lung fibroblast MRC5 by David E. Root (Whitehead Institute for Biomedical Research). Cells were incubated at 37° C. in 5% CO2 and grown in RPMI (HT29, A2780/CP70, and PC3) or DMEM (A549, MRC5, HeLa, MCF7, and U2OS) medium supplemented with 10% fetal bovine serum and 1% penicillin/streptomycin. Cells were passed every 3 to 4 days and restarted from a frozen stock upon reaching pass number 20.
(§2) Solutions of the platinum compounds were freshly prepared in sterile PBS before use and their concentrations quantitated by atomic absorption spectroscopy. […] The cells were then treated with 20 μL of 3-(4,5-dimethylthiazol-2-yl)-2,5-diphenyltetrazolium bromide (MTT) (5 mg/mL in PBS) and incubated for 4 h. The medium was removed, 100 μL of DMSO was added to the cells, and the absorbance of the purple formazan was recorded at 560 nm using a BioTek Synergy HT multi-detection microplate plate reader. Each condition was performed in triplicate and three independent experiments were carried out for each cell line.

[2] = system: normal lung fibroblast MRC5; test: MTT assay, MRC5; type: cell-based, human
Protocol: as §1, §2

[3] = system: Gaussia luciferase expression in human cancer cells; conditions: for Transcription (normalized against unplatinated control): NoPt = 100, cell line not stated
Protocol: Vector Construction and Preparation. […] Preparation of Platinated Insertion Strand. […] The suspension was centrifuged. To a solution of 0.2 mM 16-mer oligonucleotide 5′-[…]*[…] The reaction mixture was incubated in the dark at 37° C. overnight. The reaction was stopped when the solution was frozen. […] After purification, the platinated DNA solution was dialyzed against H2O and lyophilized. […] The insertion strand was further analyzed for nucleotide composition by nuclease S1 digestion to confirm the platination site following a protocol published previously (Table 13) (e.g., see J Am Chem Soc 2007, 129, 6370-6371). The platinated and unplatinated DNA strands (40 μM) were phosphorylated by T4 PNK (0.67 U/μL) at 37° C. for 3 h, followed by a phenol/chloroform/isoamyl alcohol extraction to remove the enzyme. The phosphorylated DNA strands were ethanol precipitated and stored in −80° C. at a concentration of 100 pmol/μL.
Briefly, a 600 μg quantity of pGLuc8temG plasmid was digested with 30 U Nt.BbvCI at 37° C. for 1 h. The reaction mixture was heated at 80° C. for 20 min to deactivate the enzyme, followed by a phenol/chloroform/isoamyl alcohol extraction to remove the enzyme. The mixture was dialyzed against H2O overnight at 4° C. The plasmid was further digested with 30 U Nt.BspQI at 50° C. for 1 h, and the enzyme was heat-deactivated and removed by a phenol/chloroform/isoamyl alcohol extraction. The nicked plasmid was mixed with 1,000 equiv of complementary DNA strand 5′-[…] (SEQ ID NO: 2) in a buffer of 10 mM Tris-HCl, 2 mM MgCl2, 0.4 M NaCl, pH 7.4, heated at 80° C. for 5 min, and subsequently cooled at 4° C. for 5 min for 10 cycles. […] A 120 μg quantity of the gapped plasmid was annealed with 100 equiv of the insertion strand in a buffer of 10 mM Tris-HCl, 2 mM MgCl2, 0.4 M NaCl, pH 7.4 from 90° C. to 4° C. at −1° C./min in a thermocycler. The platinated plasmid was dialyzed against H2O at 4° C. overnight and further purified by treatment with 30 U BsmBI at 55° C. for 1 h. The closed-circular form of plasmid was purified and concentrated by isopycnic centrifugation, followed by n-butanol extraction and ethanol precipitation. The plasmids were quantitated by a Quant-iT™ PicoGreen® dsDNA Kit from Invitrogen (Carlsbad, Calif.), and stored in −80° C. in TE buffer (10 mM Tris-HCl, 2 mM EDTA, pH 7.4).
Transfection of platinated plasmids into mammalian cells was carried out as reported previously (e.g., see ChemBioChem 2011, 12, 1115-1123). A549 and HeLa cells were plated at 2,000 cells per well in 96-well plates. NTera-2 and HT29 cells were plated at 4,000 cells per well in 96-well plates. MCF7 and U2OS cells were plated at 5,000 cells per well in 96-well plates. The cells were allowed to attach and grow for 48 h, and then washed with antibiotic-free culture media right before transfection. Transient transfection of the cells was carried out using Lipofectamine 2000. Briefly, 10 ng of site specifically platinated probes was included in each well. The experiments were performed in quadruplicate. The probes were diluted in OptiMEM, and Lipofectamine was diluted in OptiMEM. The two solutions were combined and incubated for 20 min. The transfection mixture was delivered into each well, and the cells were incubated for 2 h. The cells were washed with antibiotic-free culture media to remove the transfection mixture. A 100 μL volume of fresh, antibiotic-free media was added into each well to start the transcription assay. […]

5′-dGMP = conditions: 16 equiv 5′-dGMP, 37° C., PBS pH 7.4
Protocol: The 1-D ^1H NMR kinetic studies were performed in duplicate as a standard time-arrayed experiment using a variable delayed list. Incremented 1-D spectra were processed in exactly the same way and signals of aromatic amine ligands from platinum compounds were integrated. The relative concentrations of the platinum compound at each time point were calculated from peak integrals. […] Reactions of platinum compounds with 5′-dGMP were performed in NMR tubes containing 2 mM of the platinum compounds and 32 mM (16 equiv) of 5′-dGMP in 10 mM PBS buffer, D2O, pH*7.4 at 37° C.

- IC50 ([1]; Table 3, MCF7 Breast, 72-h incubation): 940 ± 90 nM
- IC50 ([1]; Table 14, MCF7, MTT assay): 1140 ± 20 nM
Substance: cis-[Pt(NH3)2(phenanthridine)Cl]NO3 [phenanthriplatin]
- IC50 ([2]; Table 4, MRC5 normal lung fibroblast, 72 h incubation): 860 ± 60 nM
- IC50 ([2]; Table 5, MRC5, 72-h incubation): 860 ± 60 nM
- Transcription (normalized against unplatinated control) ([3]; 16 hours): 26
- Transcription (normalized against unplatinated control) ([3]; 24 hours): 32
- Transcription (normalized against unplatinated control) ([3]; 32 hours): 36
- Transcription (normalized against unplatinated control) ([3]; 44 hours): 41
- transcription inhibition in live mammalian cancer cells ([3]; site-specific cis-[Pt(NH3)2(phen)]2+-dG lesion): strong transcription inhibitor
- pseudo-first order rate constant, reaction with 5′-dGMP (5′-dGMP): 0.22 h⁻¹
